Assay results published in publication PMC8874540, “Pyrazole and Triazole Derivatives as Mycobacterium tuberculosis UDP-Galactopyranose Inhibitors” (Pharmaceuticals, 2022).
Counter-ions that a name gives are not always drawn.

How the values were obtained:
[1] = molecular target: T1, UDP-galactopyranose mutase (MtbUGM) (Mycobacterium tuberculosis, UniProt P9WIQ1); assay: HPLC assay, % inhibition at […], […] UDP-Galf; type: biochemical
T1 construct: gene glf; His6-tagged MtbUGM from pET-29b(+)

[2] = molecular target: T1, UDP-galactopyranose mutase (MtbUGM); assay: HPLC kinetic assay of UDP-Galf to UDP-Galp, global fit; type: biochemical

T1 sequence (P9WIQ1 whole entry): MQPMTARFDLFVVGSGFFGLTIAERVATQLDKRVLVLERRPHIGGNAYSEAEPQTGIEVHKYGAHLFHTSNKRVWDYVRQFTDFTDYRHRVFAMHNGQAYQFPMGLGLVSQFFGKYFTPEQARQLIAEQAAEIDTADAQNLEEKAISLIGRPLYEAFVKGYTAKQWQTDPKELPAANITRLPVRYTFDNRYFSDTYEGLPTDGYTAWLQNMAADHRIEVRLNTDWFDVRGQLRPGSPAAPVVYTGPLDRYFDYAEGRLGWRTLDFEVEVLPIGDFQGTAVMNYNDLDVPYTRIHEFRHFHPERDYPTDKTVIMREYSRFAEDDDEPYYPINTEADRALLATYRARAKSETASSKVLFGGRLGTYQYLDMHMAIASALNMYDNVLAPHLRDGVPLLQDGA

Row | Structure (SMILES) | HPLC assay, % inhibition at 60 μM, 15 μM UDP-Galf [1] | Ki [2] [µM]
1 | Cc1nn(-c2ccccc2)c(O)c1C(=O)c1ccc(Cl)cc1 [DA1, 4-p-chlorobenzoyl-1-phenyl-3-methyl-5-pyrazol] | DA1 and DA2 showed comparable inhibition to that of MS208 | –
2 | Cc1nn(-c2ccc(Cl)cc2)c(O)c1C(=O)c1ccccc1 [DA2, 4-benzoyl-1-p-chlorophenyl-3-methyl-5-pyrazol] | DA1 and DA2 showed comparable inhibition to that of MS208 | –
3 | Cc1nn(-c2ccc(Cl)cc2)c(O)c1S(=O)(=O)c1ccc(Cl)cc1 [DA5, 4-p-chlorobenzosulfonyl-1-p-chlorophenyl-3-methyl-5-pyrazol hydrochloride] | The sulfonyl derivative, DA5, showed comparable % inhibition to that of the carbonyl derivative MS208. | –
4 | COC(=O)c1ccc(C(=O)Oc2cc(C)nn2-c2ccc(Cl)cc2)cc1 [DA8] | two of these O-acyl analogues, DA8 and DA10 still showed comparable % inhibition to MS208 | –
5 | Cc1cc(OC(=O)c2ccc(S(N)(=O)=O)cc2)n(-c2ccc(Cl)cc2)n1 [DA10, 4-Sulfamoyl-[3-methyl-1-p-chlorophenyl-1H-pyrazol-5-yl] benzoic acid ester] | – | 51 ± 4
6 | O=C(CCc1cn(-c2ccc(Cl)cc2)nn1)Oc1ccc(Cl)cc1 [DA11] | The triazolo analogues, DA11-DA13, showed comparable % inhibition to that of MS208. | –
7 | OC(c1ccc(Cl)cc1)c1cn(-c2ccc(Cl)cc2)nn1 (stereo not drawn) [DA12, [1-(4-chlorophenyl)-1H-1,2,3-triazol-4-yl]-4-chlorophenylmethanol] | The triazolo analogues, DA11-DA13, showed comparable % inhibition to that of MS208. | –
8 | O=C(c1ccc(Cl)cc1)c1cn(-c2ccc(Cl)cc2)nn1 [DA13, 4-p-chlorobenzoyl-1-p-chlorophenyl-1H-1,2,3-triazole] | The triazolo analogues, DA11-DA13, showed comparable % inhibition to that of MS208. | –
9 | Cc1nn(-c2ccc(Cl)cc2)c(O)c1C(=O)c1ccc(Cl)cc1 [MS208, 4-p-chlorobenzoyl-1-p-chlorophenyl-3-methyl-5-pyrazol] | DA1 and DA2 showed comparable inhibition to that of MS208 | –
